Results reported in publication PMC6879718, “Mycobacterial OtsA Structures Unveil Substrate Preference Mechanism and Allosteric Regulation by 2-Oxoglutarate and 2-Phosphoglycerate” (mBio, 2019).
“Also recorded” adds a separate entry of the source. Where two headings read alike, the source gives them in different places.

Legend:
Type in all cases: biochemical, Mycobacterium thermoresistibile
[1] = target: T1, M. thermoresistibile OtsA wild type (Mycolicibacterium thermoresistibile, UniProt G7CGT2); experiment: Effect of feedback inhibitors and allosteric regulators on OtsA activity (wild type)
[2] = target: T2, M. thermoresistibile OtsA R213E (Mycolicibacterium thermoresistibile, UniProt G7CGT2, R213E); experiment: Effect of allosteric regulators on OtsA activity (R213E); settings: R213E, G6P and ADP-glucose both 0.3 mM
T2 sequence (G7CGT2 1-486 R213E): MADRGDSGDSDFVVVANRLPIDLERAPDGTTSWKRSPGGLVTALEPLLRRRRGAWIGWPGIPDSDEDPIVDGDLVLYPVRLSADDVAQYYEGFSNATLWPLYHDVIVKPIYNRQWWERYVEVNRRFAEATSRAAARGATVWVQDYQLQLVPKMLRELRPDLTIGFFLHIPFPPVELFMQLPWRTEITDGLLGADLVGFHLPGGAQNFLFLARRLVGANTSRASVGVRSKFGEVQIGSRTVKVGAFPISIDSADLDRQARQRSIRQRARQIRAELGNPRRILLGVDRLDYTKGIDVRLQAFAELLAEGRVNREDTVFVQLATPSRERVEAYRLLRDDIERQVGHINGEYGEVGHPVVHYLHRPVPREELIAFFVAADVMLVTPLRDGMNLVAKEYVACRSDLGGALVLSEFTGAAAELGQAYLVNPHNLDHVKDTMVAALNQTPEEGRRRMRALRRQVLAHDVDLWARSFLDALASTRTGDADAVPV
Procedure: (§1) . All reagents used were obtained from Sigma-Aldrich. The enzymatic reactions (200-μl reaction mixture) were performed at 37°C, and the reaction mixtures contained 50 mM Tris (pH 7.5), 200 mM NaCl, 10 mM MgCl2, 50 mM KCl, 0.3 mM NADH, 2.5 mM phosphoenolpyruvate (PEP), 10 units of pyruvate kinase-lactate dehydrogenase, 0.1 μM enzyme, and various concentrations of G6P and NDP-glucose to determine kinetic parameters.
(§2) […]. All experiments were performed in triplicate in a PHERAstar plate reader (BMG Labtech), and data were analyzed with Prism 5 (GraphPad Software).

[3] = target: T3, M. thermoresistibile OtsA R384E (Mycolicibacterium thermoresistibile, UniProt G7CGT2, R384E); experiment: Effect of allosteric regulators on OtsA activity (R384E); settings: R384E, G6P and ADP-glucose both 0.3 mM
T3 sequence (G7CGT2 1-486 R384E): T2 sequence (G7CGT2 1-486 R213E)
Procedure: as §1, §2

[4] = target: T1, M. thermoresistibile OtsA wild type; experiment: OtsA kinetic parameters, continuous colorimetric coupled assay (wild type); settings: ADP-glucose as the donor substrate
[5] = wild type, G6P and ADP-glucose both 0.3 mM

O=C(O)CCC(=O)C(=O)O [2OG, 2-oxoglutarate]
nH, Hill coefficient (95% confidence interval) [1, 5]: 1.4 (1.1–1.7) | IC50 ([1]; wild type, G6P and ADP-glucose both 0.3 mM, read-out: IC50 (95% confidence interval)): 1.8 mM | effect on OtsA activity [2]: abolished the strong response | nH, Hill coefficient (95% confidence interval) [2]: 0.26 (0.16–0.35) | IC50 ([2]; read-out: IC50 (95% confidence interval)): 73 mM | effect on OtsA activity [3]: strong activator | nH, Hill coefficient (95% confidence interval) [3]: 2.5 (1.4–3.5) | EC50 ([3]; read-out: EC50 (95% confidence interval), activation): 0.7 mM

O=C(O)C(CO)OP(=O)(O)O (centres unmarked) [2PG, 2-phosphoglyceric acid]
IC50 [1]: 2.3 mM | nH, Hill coefficient (95% confidence interval) [1, 5]: 2.0 (1.4–2.7) | nH, Hill coefficient (95% confidence interval) [2]: 0.51 (0.40–0.63) | effect on OtsA activity [3]: no effect

O=S(=O)(O)CCNC1CCCCC1 [CHES, N-cyclohexyl-2-aminoethanesulfonic acid]
effect on OtsA activity [1, 5]: no discernible impact on OtsA activity

O=C(CO)[C@@H](O)[C@H](O)[C@H](O)COP(=O)(O)O [F6P]
effect on OtsA activity [1]: could not detect any effect; also recorded: no effect on the enzyme activity

O=C[C@H](O)[C@@H](O)[C@H](O)[C@H](O)COP(=O)(O)O [Glucose-6-phosphate, glucose-6-phosphate]
use as acceptor substrate [4]: the only acceptor

O=P(O)(O)OC[C@H]1O[C@H](O[C@H]2O[C@H](CO)[C@@H](O)[C@H](O)[C@H]2O)[C@H](O)[C@@H](O)[C@@H]1O [T6P, trehalose-6-phosphate]
effect on OtsA activity [1, 5]: very low sensitivity

OC[C@H]1O[C@H](O[C@H]2O[C@H](CO)[C@@H](O)[C@H](O)[C@H]2O)[C@H](O)[C@@H](O)[C@@H]1O [Trehalose]
IC50 [1]: ~24 mM
